These results are taken from patent US11873288B2, “Inhibitors for soluble epoxide hydrolase (sEH) and fatty acid amide hydrolase (FAAH)” (The Regents of the University of California, priority 2016, dated 2024).

Type in all cases: biochemical
In one experiment the target is T1, hsEH (Homo sapiens, UniProt P34913).
T1 sequence (P34913 1-555): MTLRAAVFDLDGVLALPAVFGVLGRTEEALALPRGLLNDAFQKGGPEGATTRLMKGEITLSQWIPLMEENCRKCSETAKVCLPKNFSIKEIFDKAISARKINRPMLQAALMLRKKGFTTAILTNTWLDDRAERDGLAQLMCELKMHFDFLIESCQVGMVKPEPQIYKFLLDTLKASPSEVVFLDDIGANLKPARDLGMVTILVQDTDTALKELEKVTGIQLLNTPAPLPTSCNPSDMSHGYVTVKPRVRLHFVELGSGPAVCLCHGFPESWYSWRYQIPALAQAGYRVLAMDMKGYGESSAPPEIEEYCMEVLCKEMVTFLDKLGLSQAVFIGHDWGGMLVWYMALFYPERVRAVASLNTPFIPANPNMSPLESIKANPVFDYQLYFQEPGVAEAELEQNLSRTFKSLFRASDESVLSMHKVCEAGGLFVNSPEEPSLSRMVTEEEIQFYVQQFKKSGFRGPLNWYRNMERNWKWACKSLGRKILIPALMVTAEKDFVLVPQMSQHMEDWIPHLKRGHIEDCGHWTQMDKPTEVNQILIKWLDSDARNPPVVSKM
Briefly: human sEH inhibition (hsEH IC50).

In experiment [1] the target is T2, hFAAH (Homo sapiens, UniProt O00519).
T2 construct: made in house
T2 sequence (O00519 1-579): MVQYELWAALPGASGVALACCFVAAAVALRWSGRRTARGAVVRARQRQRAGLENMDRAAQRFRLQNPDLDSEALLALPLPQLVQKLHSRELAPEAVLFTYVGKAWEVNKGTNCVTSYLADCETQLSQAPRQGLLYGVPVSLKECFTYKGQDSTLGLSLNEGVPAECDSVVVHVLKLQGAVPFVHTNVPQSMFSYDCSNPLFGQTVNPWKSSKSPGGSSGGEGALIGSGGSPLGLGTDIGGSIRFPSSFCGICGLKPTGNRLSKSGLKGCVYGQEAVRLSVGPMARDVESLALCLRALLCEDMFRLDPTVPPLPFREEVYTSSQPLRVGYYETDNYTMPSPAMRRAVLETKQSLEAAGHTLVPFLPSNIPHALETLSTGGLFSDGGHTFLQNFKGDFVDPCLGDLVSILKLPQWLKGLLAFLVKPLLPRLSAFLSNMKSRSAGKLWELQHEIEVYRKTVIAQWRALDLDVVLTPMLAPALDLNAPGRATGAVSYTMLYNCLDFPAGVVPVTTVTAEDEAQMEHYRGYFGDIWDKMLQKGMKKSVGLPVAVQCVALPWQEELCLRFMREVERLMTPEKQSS
Briefly: recombinant FAAH enzyme with fluorescent substrate OMP (hFAAH IC50, screen).

For experiment [2], the target named is T2, hFAAH. Briefly: hFAAH inhibition kinetics (KD, k2).

As a reminder, the IC50 is the midpoint of a concentration-inhibition curve. `O=C(NCCCCOc1ccc(C(=O)O)cc1)Nc1ccc(OC(F)(F)F)cc1` [Compound A-6, 4-(4-(3-(4-(trifluoromethoxy)phenyl)ureido)butoxy)benzoic acid]: the concentration for half-maximal inhibition (IC50) against hsEH stood at 15 nM. With `O=C(Nc1ccc(C(F)(F)F)cc1)N1CCC(Cc2cccc(Oc3ccc(C(F)(F)F)cn3)c2)CC1` [Compound B-13, N-(4-(trifluoromethyl)phenyl)-4-(3-((5-(trifluoromethyl)pyridin-2-yl)oxy)benzyl)piperidine-1-carboxamide], the IC50 at hFAAH [1] came out at 8 nM; against hsEH, 7 nM.

For `O=C(Nc1ccccc1F)N1CCC(Cc2cnc3ccccc3c2)CC1` [Compound B-3, N-(2-fluorophenyl)-4-(quinolin-3-ylmethyl)piperidine-1-carboxamide], the half-maximal inhibitory concentration (IC50) worked out at 49 nM at hFAAH [1] and 800 ± 400 nM at hsEH. Moreover, on hFAAH [1] (relative to PF-750), the “increased potency towards FAAH” value is on record as 2.5 fold. Turning to `O=C(O)CNC(=O)c1ccc(O[C@H]2CC[C@H](NC(=O)Nc3ccc(OC(F)(F)F)cc3)CC2)cc1` [Compound A-16], the concentration for half-maximal inhibition (IC50) against hsEH is 2 nM. `NC(=O)c1ccc(O[C@H]2CC[C@H](NC(=O)Nc3ccc(OC(F)(F)F)cc3)CC2)cc1` [Compound A-19, trans-4-((−4-(3-(4-(trifluoromethoxy)phenyl)ureido)cyclohexyl)oxy) benzamide] showed an IC50 at hsEH of 2 nM. Still for that read-out and setting: the value for `N#Cc1ccc(O[C@H]2CC[C@H](NC(=O)Nc3ccc(OC(F)(F)F)cc3)CC2)cc1` [Compound A-11] was 5 nM; that for `COC(=O)CNC(=O)c1ccc(O[C@H]2CC[C@H](NC(=O)Nc3ccc(OC(F)(F)F)cc3)CC2)cc1` [Compound A-17, methyl trans-(4-((4-(3-(4-(trifluoromethoxy)phenyl)ureido)cyclohexyl)oxy)benzoyl)glycinate] was 3 nM. `O=C(Nc1ccc(C(F)(F)F)nc1)N1CCC(Cc2cccc(Oc3ccc(C(F)(F)F)cn3)c2)CC1` [Compound B-15, 4-(3-((5-(trifluoromethyl)pyridin-2-yl)oxy)benzyl)-N-(6-(trifluoromethyl)pyridin-3-yl)piperidine-1-carboxamide]: the IC50 at hFAAH [1] came out at 24 nM; against hsEH, 70 nM. `O=Cc1ccc(O[C@H]2CC[C@H](NC(=O)Nc3ccc(OC(F)(F)F)cc3)CC2)cc1` [Compound A-20, trans-1-(4-(4-formyl-phenoxy)cyclohexyl)-3-(4-(trifluoromethoxy)phenyl)urea] showed an IC50 on hsEH of 4 nM. Regarding `O=C(Nc1ccc(OC(F)(F)F)cc1)N[C@H]1CC[C@H](Oc2ccc(C(=O)NCCO)cc2)CC1` [Compound A-15, N-(2-hydroxyethyl)-trans-4-((−4-(3-(4-(trifluoromethoxy)phenyl)ureido)cyclohexyl)oxy)benzamide], on hsEH, the IC50 was 2 nM. `O=C(Nc1ccc(OC(F)(F)F)cc1)N[C@H]1CC[C@H](Oc2ccc(C(=O)NCc3ccccc3)cc2)CC1` [Compound A-27, N-benzyl-trans-4-((−4-(3-(4-(trifluoromethoxy)phenyl)ureido)cyclohexyl)oxy)benzamide] registered a half-maximal inhibitory concentration (IC50) at hsEH of 5 nM. `O=C(Nc1cccnn1)N1CCC(Cc2cccc(Oc3ccc(C(F)(F)F)cn3)c2)CC1` [Compound B-16, N-(pyridazin-3-yl)-4-(3-((5-(trifluoromethyl)pyridin-2-yl)oxy)benzyl)piperidine-1-carboxamide]: the 50% inhibitory concentration (IC50) is 0.5 nM at hFAAH [1] and more than 10000 nM at hsEH. The molecule `CC(C)OC(=O)c1ccc(O[C@H]2CC[C@H](NC(=O)Nc3ccc(OC(F)(F)F)cc3)CC2)cc1` [Compound A-13, isopropyl 4-((trans-4-(3-(4-(trifluoromethoxy)phenyl)ureido)cyclohexyl)oxy)benzoate] returned an IC50 at hsEH of 5 nM.

Take `O=C(Nc1ccccc1)N[C@H]1CC[C@H](Oc2ccc(C(=O)O)cc2)CC1` [Compound A-1, 4-((trans-4-(3-phenylureido)cyclohexyl)oxy)benzoic acid]: on hsEH, half-maximal inhibition (IC50) required 30 nM. With `O=C(Nc1ccc(C(F)(F)F)cc1F)N1CCC(Cc2cccc(Oc3ccc(C(F)(F)F)cn3)c2)CC1` [Compound B-18, N-(2-fluoro-4-(trifluoromethyl)phenyl)-4-(3-((5-(trifluoromethyl)pyridin-2-yl)oxy)benzyl)piperidine-1-carboxamide], the values for the IC50 on hFAAH [1] and against hsEH were 3 nM and 9 nM, respectively. With `O=C(Nc1ccc(OC(F)(F)F)cc1)N[C@H]1CC[C@H](Oc2ccc(CO)cc2)CC1` [Compound A-24, 1-(trans-4-(4-(hydroxymethyl)phenoxy)cyclohexyl)-3-(4-(trifluoromethoxy)phenyl)urea], on hsEH, the 50% inhibitory concentration (IC50) came to 3 nM.

Molecule `COC(=O)c1ccc(O[C@H]2CC[C@H](NC(=O)Nc3ccc(OC(F)(F)F)cc3)CC2)cc1` [Compound A-12, methyl 4-((trans-4-(3-(4-(trifluoromethoxy)phenyl)ureido)cyclohexyl)oxy) benzoate] came in with a concentration for half-maximal inhibition (IC50) against hsEH of 7 nM. Consider `O=C(Nc1ccc(F)cc1)N1CCC(Cc2cnc3ccccc3c2)CC1` [Compound B-1, N-(4-fluorophenyl)-4-(quinolin-3-ylmethyl)piperidine-1-carboxamide], for which the 50% inhibitory concentration (IC50) at hFAAH [1] was found to be 88 nM. At hFAAH [1] (relative to PF-750), the “decrease of activity/potency towards FAAH” value is listed as 4 fold. On hsEH, the IC50 came out at 94 ± 42 nM and the “increase of activity/potency towards sEH” value came to 7 fold.

As for `COc1ccc(O[C@H]2CC[C@H](NC(=O)Nc3ccc(OC(F)(F)F)cc3)CC2)cc1` [Compound A-22], the midpoint of inhibition against hsEH, the IC50, lay at 3 nM. Turning to `Cc1noc(NC(=O)N2CCC(Cc3cccc(Oc4ccc(C(F)(F)F)cn4)c3)CC2)c1C` [Compound B-17], the results for the half-maximal inhibitory concentration (IC50) on hFAAH [1] and against hsEH were 1 nM and 500 nM, respectively. In the case of `O=C(Nc1ccc(C(F)(F)F)cn1)N1CCC(Cc2cccc(Oc3ccc(C(F)(F)F)cn3)c2)CC1` [Compound B-14, N-(5-(trifluoromethyl)pyridin-2-yl)-4-(3-((5-(trifluoromethyl)pyridin-2-yl)oxy)benzyl)piperidine-1-carboxamide], the IC50 on hFAAH [1] is 3 nM; on hsEH, 60 nM. Turning to `O=C(Nc1ccc(OC(F)(F)F)cc1)N1CCC(Cc2cnc3ccccc3c2)CC1` [Compound B-4, 4-(quinolin-3-ylmethyl)-N-(4-(trifluoromethoxy)phenyl)piperidine-1-carboxamide], the half-maximal inhibitory concentration (IC50) at hFAAH [1] came to 390 nM. The “decrease of activity/potency towards FAAH” value on hFAAH [1] (relative to PF-750) was 20.5 fold. On hsEH, the IC50 is 8 ± 1 nM and the “increase of activity/potency towards sEH” value amounted to 80 fold. Turning to `O=C(Nc1cccnc1)N1CCC(Cc2cnc3ccccc3c2)CC1` [Compound B-6, N-(pyridin-3-yl)-4-(quinolin-3-ylmethyl)piperidine-1-carboxamide], the figures for the IC50 at hFAAH [1] and at hsEH were 14 nM and 4700 ± 1800 nM, respectively. On to `O=C(Nc1ccc(Cl)cc1)N1CCC(Cc2cnc3ccccc3c2)CC1` [Compound B-2, N-(4-chlorophenyl)-4-(quinolin-3-ylmethyl)piperidine-1-carboxamide], for which the 50% inhibitory concentration (IC50) on hFAAH [1] is 62 nM; against hsEH, 20 ± 4 nM. Besides, the “decrease of activity/potency towards FAAH” value at hFAAH [1] (relative to PF-750) stood at 3 fold. Further, the “increase of activity/potency towards sEH” value at hsEH is 30 fold.

On to `O=C(Nc1ccc(F)cc1)N[C@H]1CC[C@H](Oc2ccc(C(=O)O)cc2)CC1` [Compound A-2, 4-((trans-4-(3-(4-fluorophenyl)ureido)cyclohexyl)oxy)benzoic acid], for which inhibition at hsEH was half-maximal at 18 nM (IC50). On to `Cc1nnc(-c2ccc(O[C@H]3CC[C@H](NC(=O)Nc4ccc(OC(F)(F)F)cc4)CC3)cc2)o1` [Compound A-25, 1-(trans-4-(4-(5-methyl-1,3,4-oxadiazol-2-yl)phenoxy)cyclohexyl)-3-(4-(trifluoromethoxy)phenyl)urea], for which the 50% inhibitory concentration (IC50) on hsEH came out at 4 nM. Turning to `O=C(O)c1ccc(OC2CCN(C(=O)Nc3ccc(OC(F)(F)F)cc3)CC2)cc1` [Compound A-10, 4-((1-((4-(trifluoromethoxy)phenyl)carbamoyl)piperidin-4-yl)oxy)benzoic acid], at hsEH, half-maximal inhibition (IC50) was put at 8 nM.

Turning to `O=C(Nc1ccc(OC(F)(F)F)cc1)N1CCC(Cc2cccc(Oc3ccc(C(F)(F)F)cn3)c2)CC1` [Compound B-11, N-(4-(trifluoromethoxy)phenyl)-4-(3-((5-(trifluoromethyl)pyridin-2-yl)oxy)benzyl)piperidine-1-carboxamide], the “hFAAH IC50” value at hFAAH [1] is on record as “single digit”. Also, the “hsEH IC50” value at hsEH is “single digit”. By Kd is commonly meant a measure of binding affinity in units of concentration. Higher therefore signals a looser complex. As to `COc1ccc(NC(=O)N2CCC(Cc3ccc4ccccc4n3)CC2)cc1` [Compound B-7, N-(4-methoxyphenyl)-4-(quinolin-2-ylmethyl)piperidine-1-carboxamide], on hFAAH [2], binding was put at a Kd of 100 ± 40 nM and the “hFAAH k2” value was 0.28 ± 0.04 min⁻¹.
